Assay results published in patent US10745400B2, “Inhibition of BMP signaling, compounds, compositions and uses thereof” (Vanderbilt University, priority 2018, dated 2020).
pIC50: −log10 of the molar value.

Assays:
ALK2 (Q207D) = molecular target: T1, ALK2 (Q207D) (Homo sapiens, UniProt Q04771, Q207D); experiment: Kinase assay (33P-ATP filter-binding), ALK2 Q207D; assay type: biochemical; details: Q207D mutant, 20 mM; read-out: Kinase Selectivity ALK2 (Q207D, 20 mM)
T1 sequence (Q04771 21-509 Q207D): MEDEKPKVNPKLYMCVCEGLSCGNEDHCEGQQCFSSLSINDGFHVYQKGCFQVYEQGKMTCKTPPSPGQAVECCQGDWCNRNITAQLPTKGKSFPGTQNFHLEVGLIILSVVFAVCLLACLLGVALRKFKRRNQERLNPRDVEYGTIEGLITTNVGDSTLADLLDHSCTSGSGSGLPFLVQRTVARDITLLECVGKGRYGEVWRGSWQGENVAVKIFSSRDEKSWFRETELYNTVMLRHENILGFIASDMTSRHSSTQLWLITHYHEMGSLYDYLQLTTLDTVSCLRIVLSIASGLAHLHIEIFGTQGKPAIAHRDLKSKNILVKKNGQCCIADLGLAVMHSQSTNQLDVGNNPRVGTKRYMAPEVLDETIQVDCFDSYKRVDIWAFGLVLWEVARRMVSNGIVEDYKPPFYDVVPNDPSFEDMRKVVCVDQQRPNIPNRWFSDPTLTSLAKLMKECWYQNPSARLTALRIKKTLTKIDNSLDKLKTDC
Outline: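 Kinase mixed into substrate in Hepes (pH 7.5)/MgCl2/EGTA/DTT buffer, 1% DMSO. Cpd acoustically dispensed, 20 min RT preinc. Start w/ 33P-ATP, 2 h RT, P81 spot, filter-binding.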

BMPR2 = molecular target: T2, BMPR2 (Homo sapiens, UniProt Q13873); experiment: Kinase assay (33P-ATP filter-binding), BMPR2; assay type: biochemical; details: read-out: Kinase Selectivity BMPR2
T2 sequence (Q13873 27-1038): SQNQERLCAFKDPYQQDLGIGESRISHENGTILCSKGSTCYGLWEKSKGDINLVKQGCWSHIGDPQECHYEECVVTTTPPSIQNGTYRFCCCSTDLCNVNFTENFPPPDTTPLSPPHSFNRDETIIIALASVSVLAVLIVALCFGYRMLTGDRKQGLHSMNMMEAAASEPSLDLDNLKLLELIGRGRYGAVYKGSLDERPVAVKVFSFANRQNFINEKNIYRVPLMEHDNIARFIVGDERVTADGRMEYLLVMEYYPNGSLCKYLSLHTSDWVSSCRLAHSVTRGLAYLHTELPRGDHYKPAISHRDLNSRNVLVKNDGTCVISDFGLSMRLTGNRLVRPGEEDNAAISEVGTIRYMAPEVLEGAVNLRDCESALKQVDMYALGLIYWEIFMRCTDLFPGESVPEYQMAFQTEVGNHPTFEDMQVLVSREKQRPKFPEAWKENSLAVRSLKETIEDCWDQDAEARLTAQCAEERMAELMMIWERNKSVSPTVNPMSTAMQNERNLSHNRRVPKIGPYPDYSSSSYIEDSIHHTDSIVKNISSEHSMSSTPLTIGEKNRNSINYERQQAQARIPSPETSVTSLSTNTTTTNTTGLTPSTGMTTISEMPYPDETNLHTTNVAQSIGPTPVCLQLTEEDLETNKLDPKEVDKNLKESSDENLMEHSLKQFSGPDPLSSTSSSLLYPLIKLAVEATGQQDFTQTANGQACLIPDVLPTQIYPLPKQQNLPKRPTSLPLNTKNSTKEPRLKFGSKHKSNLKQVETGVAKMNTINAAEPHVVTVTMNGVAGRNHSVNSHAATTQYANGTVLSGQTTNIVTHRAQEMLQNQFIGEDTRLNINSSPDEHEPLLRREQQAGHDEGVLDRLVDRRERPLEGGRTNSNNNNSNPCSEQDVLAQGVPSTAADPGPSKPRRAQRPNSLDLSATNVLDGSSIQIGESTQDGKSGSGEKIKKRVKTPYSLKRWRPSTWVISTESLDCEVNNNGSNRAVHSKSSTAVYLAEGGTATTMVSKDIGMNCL
Protocol: (§1) The kinase assays were carried out briefly as follows. Substrate was prepared in Base Reaction Buffer (20 mM Hepes (pH 7.5), 10 mM MgCl2, 1 mM EGTA, 0.02% Brij35, 0.02 mg/ml BSA, 0.1 mM Na3VO4, 2 mM DTT, 1% DMSO). The indicated kinases was delivered into the substrate solution and allowed to gently mix. Next, the specific compound was delivered in DMSO into the kinase mixture by Acoustic technology (Echo550; nanoliter range), and allowed to incubate for 20 minutes at room temperature. Next, ^33P-ATP was delivered into the reaction mixture to initiate the reaction and allowed to incubate at room temperature. After 2 hours, the reactions were spotted onto P81 ion exchange paper and the kinase activity is detected by the filter-binding method.

Protein binding, human = assay type: in vitro ADME
TGFbR2 = TGFbR2 (Homo sapiens, UniProt P37173); experiment: Kinase assay (33P-ATP filter-binding), TGFbR2; assay type: biochemical; details: read-out: Kinase Selectivity TGFbR2
Protocol: as §1

ALK4 = molecular target: T3, ALK4 (Homo sapiens, UniProt P36896); experiment: Kinase assay (33P-ATP filter-binding), ALK4; assay type: biochemical; details: read-out: Kinase Selectivity ALK4
T3 sequence (P36896 24-505): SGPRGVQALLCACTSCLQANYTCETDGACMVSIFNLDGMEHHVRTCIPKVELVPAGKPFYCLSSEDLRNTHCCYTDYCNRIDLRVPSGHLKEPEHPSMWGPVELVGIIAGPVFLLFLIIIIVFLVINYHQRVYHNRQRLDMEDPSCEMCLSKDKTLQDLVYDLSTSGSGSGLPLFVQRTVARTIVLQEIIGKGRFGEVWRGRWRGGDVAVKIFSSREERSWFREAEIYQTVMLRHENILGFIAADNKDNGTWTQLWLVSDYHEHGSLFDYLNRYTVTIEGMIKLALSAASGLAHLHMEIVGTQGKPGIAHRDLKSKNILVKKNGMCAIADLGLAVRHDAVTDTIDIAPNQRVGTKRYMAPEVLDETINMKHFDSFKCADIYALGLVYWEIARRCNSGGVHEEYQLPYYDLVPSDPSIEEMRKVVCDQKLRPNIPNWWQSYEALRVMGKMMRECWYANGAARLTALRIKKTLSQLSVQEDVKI
Protocol: as §1

[1] = system: BMP-responsive C2C12 mouse myoblast cells stimulated with BMP4; experiment: BMP4 cell assay (Id1 promoter-firefly luciferase reporter); assay type: cell-based; details: Mus musculus; C2C12 cells, BMP4 50 ng/mL, overnight

Chain of TGFbR2 (P37173 23-567, species assumed): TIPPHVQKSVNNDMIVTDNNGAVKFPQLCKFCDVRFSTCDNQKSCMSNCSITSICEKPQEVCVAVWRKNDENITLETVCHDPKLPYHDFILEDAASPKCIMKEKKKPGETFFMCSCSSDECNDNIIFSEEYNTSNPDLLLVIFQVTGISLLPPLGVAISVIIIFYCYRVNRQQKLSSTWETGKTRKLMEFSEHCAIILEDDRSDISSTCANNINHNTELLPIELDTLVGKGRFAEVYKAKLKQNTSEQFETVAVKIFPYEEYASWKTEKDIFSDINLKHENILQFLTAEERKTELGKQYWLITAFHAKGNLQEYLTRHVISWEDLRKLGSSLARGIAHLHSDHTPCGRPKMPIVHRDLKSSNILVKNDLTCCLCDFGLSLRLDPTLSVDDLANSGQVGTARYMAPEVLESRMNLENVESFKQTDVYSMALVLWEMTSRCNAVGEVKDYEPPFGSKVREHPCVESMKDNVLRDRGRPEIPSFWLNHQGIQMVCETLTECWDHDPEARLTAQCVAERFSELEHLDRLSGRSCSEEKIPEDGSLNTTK

| SMILES | pIC50 (ALK2 (Q207D)) | pIC50 (BMPR2) | Protein Binding (% Free) Human (Protein binding, human) | pIC50 (TGFbR2) | pIC50 (ALK4) | pIC50 [1] |
| --- | --- | --- | --- | --- | --- | --- |
| Cc1cc(-c2cnc3cc(-c4ccc(C5COCC(C)N5)cc4)ccn23)c2cc(F)cc(F)c2n1 (stereo not shown) [Compound 23] | > 8.29 | < 4.00 | 1.11 % Free | 6.25 | 6.79 | – |
| Cc1cc(-c2cnc3cc(-c4ccc(C5COC6(CCNC6)CN5)cc4)ccn23)c2cc(F)cc(F)c2n1 (stereo not shown) [Compound 27] | 6.66 | < 4.00 | 4.97 % Free | 5.73 | 5.69 | 6.61 |
| Cc1cc(-c2cnc3cc(-c4ccc(C5COC6(CCNCC6)CN5)cc4)ccn23)c2cc(F)cc(F)c2n1 (stereo not shown) [Compound 16] | 8.20 | < 4.00 | 5.61 % Free | 6.21 | 6.11 | 7.06 |

Now from value to compound:

| pIC50 (ALK2 (Q207D)) | pIC50 (BMPR2) | Protein Binding (% Free) Human (Protein binding, human) | pIC50 (TGFbR2) | pIC50 (ALK4) | pIC50 [1] | SMILES |
| --- | --- | --- | --- | --- | --- | --- |
| > 8.29 | 4.26 | 42.8 % Free | 5.34 | 6.72 | 7.87 | c1cnc2nccc(-c3cnc4cc(-c5ccc(C6CNCCN6)cc5)ccn34)c2c1 (stereo not shown) [Compound 32] |
| > 8.29 | < 4.00 | – | 6.30 | 6.41 | 7.53 | O=C1CNC(=O)C(c2ccc(-c3ccn4c(-c5cccc6ncccc56)cnc4c3)cc2)N1 (stereo not shown) [Compound 36] |
| > 8.29 | < 4.00 | 11 % Free | 6.21 | 6.11 | 7.06 | c1cc(-c2cnc3cc(-c4ccc(C5CNCCN5)cc4)ccn23)c2cccnc2c1 (stereo not shown) [Compound 33] |
| 8.24 | < 4.00 | 11.7 % Free | 5.57 | 6.41 | 7.46 | NS(=O)(=O)c1ccc(-c2cnc3cc(-c4ccc(C5CNCCN5)cc4)ccn23)c2ccccc12 (stereo not shown) [Compound 37] |
